Test results reported in US9884862B2, “Pyridopyrimidinedione derivatives” (Novartis AG, priority 2014, dated 2018).

Legend:
[1] = system: CFTR-Y122X; assay: CFTR-Y122X assay (dual reporter isogenic Hek293 cell lines, Renilla luminescence readthrough); type: cell-based; conditions: Homo sapiens, HEK293, 24 h, nonsense mutation suppression, 24 h incubation, tested up to 100 μM; for Emax: 100% = 14 mM paromomycin, read-out: Amax
Description: Activity of compounds of the present invention was examined in recombinant, dual reporter isogenic Hek293 cell lines (“CFTR-Y122X assay”). The engineered reporter constructs contained the 18 bp sequence stretch corresponding to a common Y122X PTC mutation in CFTR class I mutant patients (see Sermet-Gaudelus, BMC Medicine, 2007, 5(5)). Instead of a tyrosine (Y) in position 122 of the CFTR protein a TGA stop codon interrupts the open reading frame (Y122X) of the corresponding mRNA. This TGA stop codon triplet (followed by the pyrimidine base cytosine) is permissive to aminoglycoside mediated translational readthrough which served as positive control for high throughput screening. A corresponding TAA stop codon variant and a wildtype non mutated construct was used for confirmation and counter screening. The CFTR sequence was sandwiched between an eGFP reporter, and a triple myc tag sequence fused to a full length Renilla reporter. All sequences, including an intron containing one positioned pre-eGFP (b-globin intron) were cloned in frame. The corresponding expression constructs were stably expressed in the isogenic HEK-R4 cell host (Invitrogen Incorp.) and selected by blasticidin resistance. The isogenic integration of the construct minimizes gene dose effects and improves assay reproducibility. Stably integrated single cell derived clones were selected and characterized for aminoglycoside mediated readthrough. […] Readthrough of Y122X accumulates an intracellular localized fusion protein approximately 65.5 kDa in size as controlled by western blot analysis and immunofluorescence using an anti-renilla antibody. The eGFP reporter pre-PTC mutation serves as visual control for genetic stability of the screening clones and minimizes protein degradation of small fusion protein amounts. In the assay, compound concentration was 10 μM. In miniaturized 1536 well format 2000 cells were dispensed in 4 μl/well and incubated for 24 h at 37° C., 5% CO2. 40 nl compounds were placed on the cells with control wells containing 1 ul Paramomycin and 14.4 mM final concentration. Compounds were incubated for 24 h. Renilla Glo substrate (2.5 ul) was added and plates were centrifuged and processed for luminescence measurement using various readers. Activity calculation was done using the equation: A1(%)=100*(S−NC)/(AC−NC) where AC, NC and S correspond to active controls (injection of Stimulation buffer=100% stimulation), neutral controls (buffer injection which Iloprost EC10) and screening samples (S). NC corresponds to 0% activity whereas AC is 100% activity (14 mM paromomycin). False positive artifacts were removed in confirmation and validation screening using the same assay format followed by counterscreening using the respective wildtype construct (w/o PTC mutation) cell model. Compounds were tested up to 100 μM compound concentration.

[2] = system: alpha-L-Iduronidase W402X in Hurler patient derived fibroblast cells; assay: Hurler patient derived fibroblast cell cultures, restored alpha-L-iduronidase activity (W402X readthrough); type: cell-based, human; conditions: Homo sapiens, Fibroblast, 192 h, 8 days incubation, highest concentration 20 uM; for Emax: 14 mM paromomycin = 100% control, read-out: Amax; for AC50: 8 point dilutions
Description: Activity of compounds of the present invention was examined in patient derived fibroblast cells. The genotyped cells were derived from the Coriell Institute (# GM00798) and contain an in frame homozygous TGG to TAG change at nucleotide 1293 of exon 9 which results in a W402X mutation. The W402X mutation is one of the most common Hurler syndromes causing loss of function mutation. Between 60-70% of genotyped patients contain either the Q70X and/or the W402X in mutation and are classified as severe MPSI patients. This TAG stop codon triplet is permissive to aminoglycoside mediated translational readthrough which served as activity control for compound testing. Readthrough of W402X restores alpha-L-Iduronidase activity which results in removal of lysosomal accumulated Glycosaminoglycan's. Iduronidase expression could neither be detected by Taqman PCR© nor by enzyme activity or ELISA methods without compound stimulation. Compounds were tested in concentration response mode. Therefore 5000 patient cells/40 ul/well in 384 well plates were used. Compound dilutions were derived from freshly prepared 10 mM compound stock solutions. Highest concentration was 20 uM and subsequently diluted 1: 3.16 (8 point dilutions, n=4). Final DMSO concentration was below 0.5% and tested to be without effect on cell viability, growth and readthrough. Cells were incubated for 8 days with one cell media and compound exchange at day 3. Thereafter cell media was removed and cells were lysed (0.4 M Sodiumformate, 0.1% NaN3, 0.9% NaCl, 0.2% Triton, pH 3.5). Restored alpha-L-iduronidase activity in cell lysates was measured with the fluorescent 4-MU iduronide substrate (5 ul of 0.4 mM 4 Methylumbelliferyl alpha-L-iduronide/well) after 48 h incubation. Paromomycin was used as reference control (14 mM=100% control).

Compound | Emax [1] | AC50 [1] | Emax [2] | AC50 [2]
Cn1c2cc(Cl)sc2c(=O)c2c(=O)n(-c3ccccc3)c(C3CCC3)nc21 [Example 2.17, 7-chloro-2-cyclobutyl-9-methyl-3-phenylthieno[2′,3′:5,6]pyrido[2,3-d]pyrimidine-4,5(3H,9H)-dione] | 151% | 4 µM | 128% | 10 µM
Cn1c2nc(C3CCC3)n(-c3ccccc3)c(=O)c2c(=O)c2cc(Cl)sc21 [Example 2.18, 7-chloro-2-cyclobutyl-9-methyl-3-phenylthieno[3′,2′:5,6]pyrido[2,3-d]pyrimidine-4,5(3H,9H)-dione] | 154% | 3.3 µM | 200% | 11 µM
CC(C)c1nc2c(c(=O)c3cc(Cl)sc3n2C)c(=O)n1-c1ccccc1 [Example 2.19] | 104% | 15 µM | 16% | 
CC(C)c1nc2c(c(=O)c3sc(Cl)cc3n2C)c(=O)n1-c1ccccc1 [Example 2.20, 7-chloro-2-isopropyl-9-methyl-3-phenylthieno[2′,3′:5,6]pyrido[2,3-d]pyrimidine-4,5(3H,9H)-dione] | 70% | 19 µM | 7% | 
Cc1csc2c(=O)c3c(=O)n(-c4ccccc4)c(C(C)C)nc3[nH]c12 [Example 2.21, 2-isopropyl-8-methyl-3-phenylthieno[2′,3′:5,6]pyrido[2,3-d]pyrimidine-4,5(3H,9H)-dione] | 180% | 14 µM | 25% | 
Cc1csc2c(=O)c3c(=O)n(-c4ccccc4)c(C(C)C)nc3n(C)c12 [Example 2.22, 2-isopropyl-8,9-dimethyl-3-phenylthieno[2′3′:5,6]pyrido[2,3-d]pyrimidine-4,5(3H,9H)-dione] | 166% | 16 µM | 8% | 
CC(C)c1nc2[nH]c3c(c(=O)c2c(=O)n1-c1ccccc1)CCCCC3 [Example 3.1, 2-isopropyl-3-phenyl-7,8,9,10-tetrahydro-3H-cyclohepta[5,6]pyrido[2,3-d]pyrimidine-4,5(6H,11H)-dione] | 190% | 13 µM | 9% | 1.4 µM
CC(C)c1nc2c(c(=O)c3c(n2C)CCCCC3)c(=O)n1-c1ccccc1 [Example 3.2, 2-isopropyl-11-methyl-3-phenyl-7,8,9,10-tetrahydro-3H-cyclohepta[5,6]pyrido[2,3-d]pyrimidine-4,5(6H,11H)-dione] | 213% | 11 µM | 83% | 12 µM
CC(C)c1nc2[nH]c3c(c(=O)c2c(=O)n1-c1ccccc1)CCC3 [Example 3.3, 2-isopropyl-3-phenyl-7,8-dihydro-3H-cyclopenta[5,6]pyrido[2,3-d]pyrimidine-4,5(6H,9H)-dione] | 112% | 21 µM | 8% | 
CC(C)c1nc2c(c(=O)c3c(n2C)CCC3)c(=O)n1-c1ccccc1 [Example 3.4, 2-isopropyl-9-methyl-3-phenyl-7,8-dihydro-3H-cyclopenta[5,6]pyrido[2,3-d]pyrimidine-4,5(6H,9H)-dione] | 40% | 18 µM | 8% | 1.4 µM
Cc1[nH]c2nc(C(C)C)n(-c3ccccc3)c(=O)c2c(=O)c1C [Example 3.5, 2-isopropyl-6,7-dimethyl-3-phenylpyrido[2,3-d]pyrimidine-4,5(3H,8H)-dione] | 114% | 17 µM | 9% | 
CC1CCc2c([nH]c3nc(C(C)C)n(-c4ccccc4)c(=O)c3c2=O)C1 (stereo not shown) [Example 3.6, 2-isopropyl-8-methyl-3-phenyl-6,7,8,9-tetrahydropyrimido[4,5-b]quinoline-4,5(3H,10H)-dione] | 46% | 27 µM | 10% | 
Cc1c(C)n(C)c2nc(C(C)C)n(-c3ccccc3)c(=O)c2c1=O [Example 3.7, 2-isopropyl-6,7,8-trimethyl-3-phenylpyrido[2,3-d]pyrimidine-4,5(3H,8H)-dione] | 61% | 22 µM | 14% | 
CC1CCc2[nH]c3nc(C(C)C)n(-c4ccccc4)c(=O)c3c(=O)c2C1 (stereo not shown) [Example 3.8, 2-isopropyl-7-methyl-3-phenyl-6,7,8,9-tetrahydropyrimido[4,5-b]quinoline-4,5(3H,10H)-dione] | 219% | 12 µM | 12% | 1.3 µM
CC1CCc2c(n(C)c3nc(C(C)C)n(-c4ccccc4)c(=O)c3c2=O)C1 (stereo not shown) [Example 3.9, 2-isopropyl-8,10-dimethyl-3-phenyl-6,7,8,9-tetrahydropyrimido[4,5-b]quinoline-4,5(3H,10H)-dione] | 11% | 11 µM | 15% | 
CC1CCc2c(c(=O)c3c(=O)n(-c4ccccc4)c(C(C)C)nc3n2C)C1 (stereo not shown) [Example 3.10, 2-isopropyl-7,10-dimethyl-3-phenyl-6,7,8,9-tetrahydropyrimido[4,5-b]quinoline-4,5(3H,10H)-dione] | 237% | 12 µM | 6% | 
CC(C)c1nc2c(c(=O)c3c(n2C)CCCC3)c(=O)n1-c1ccccc1 [Example 3.11, 2-isopropyl-10-methyl-3-phenyl-6,7,8,9-tetrahydropyrimido[4,5-b]quinoline-4,5(3H,10H)-dione] | 137% | 22 µM | 17% | 
Cc1[nH]c2nc(C3CCC3)n(-c3ccccc3)c(=O)c2c(=O)c1C [Example 3.12, 2-cyclobutyl-6,7-dimethyl-3-phenylpyrido[2,3-d]pyrimidine-4,5(3H,8H)-dione] | 505% | 4.9 µM | 183% | 12 µM
Cc1c(C)n(C)c2nc(C3CCC3)n(-c3ccccc3)c(=O)c2c1=O [Example 3.13, 2-cyclobutyl-6,7,8-trimethyl-3-phenylpyrido[2,3-d]pyrimidine-4,5(3H,8H)-dione] | 297% | 9.2 µM | 34% | 
